Values quoted from earlier work, collected in paper PMC12298270, “Development and Validation of a New LC-MS/MS Method for Simultaneous Quantification of Ivacaftor, Tezacaftor and Elexacaftor Plasma Levels in Pediatric Cystic Fibrosis Patients” (Pharmaceuticals, 2025).
Where two headings read alike, the source gives them in different places.

Columns and labels:
[1] = set-up: method as in ref 18 = [18]; 18. U.S. Food and Drug Administration Center for Drug Evaluation and Research: Nda/Bla, Multi-Disciplinary Review and Evaluation, Lumacaftor/Ivacaftor Available online: https://www.accessdata.fda.gov/; settings: Trikafta drug registration documents; cited from earlier work
[2] = set-up: method as in ref 22 = [22]; 22. Kaftrio®, Summary of Product Characteristics (SmPC), European Medicine Agency (EMA) Available online: https://www.ema.europa.eu/en/medicines/human/EPAR/kaftrio (accessed on 3 March 2024); settings: cited from earlier work
[3] = set-up: method as in PMID 36831163; settings: cited from earlier work
[4] = set-up: method as in PMID 38494378; settings: cited from earlier work
[5] = set-up: method as in PMID 40245791; settings: H-QC, after sample preparation; cited from earlier work
[6] = set-up: method as in PMID 36015300; settings: cited from earlier work
[7] = Kaftrio drug registration documents

| Structure (SMILES) | Ctrough (Cmin), mean ± SD [1] [ng/mL] | AUC0–12h, mean ± SD [2, 7] [ng·h/mL] | Cmax, mean ± SD [2, 7] [ng/mL] | Ctrough, mean ± SD ([3]; adult patients) [ng/mL] | Ctrough, mean ± SD ([3]; children) [ng/mL] | Back-calculated Ctrough, mean ± 1.96 SD [4] [ng/mL] | Remaining % after ten days in the autosampler [5] [%] | Effect of simultaneous ingestion of fatty food on exposure ([2]; Kaftrio SmPC) | Minimum concentration (Cmin), median (range) [4] [ng/mL] | Tmax [6] [h] |
| --- | --- | --- | --- | --- | --- | --- | --- | --- | --- | --- |
| CC(C)(C)c1cc(C(C)(C)C)c(NC(=O)c2c[nH]c3ccccc3c2=O)cc1O [IVA, Ivacaftor] | 630 ± 260 | 11700 ± 4010 | 1240 ± 340 | 900 ± 370 | 710 ± 200 | 700 | 88 | – | – | – |
| CC(C)(CO)c1cc2cc(NC(=O)C3(c4ccc5c(c4)OC(F)(F)O5)CC3)c(F)cc2n1C[C@@H](O)CO [TEZ, Tezacaftor] | 2100 ± 820 | – | – | – | – | – | 99.8 | not affected | 1300 | 3 |
